# Laboratory results published in patent US20240383954A1, “PEPTIDE INHIBITORS OF INTERLEUKIN-23 RECEPTOR AND THEIR USE TO TREAT INFLAMMATORY DISEASES” (Janssen Biotech, Inc., priority 2020, published 2024).
# Starred links: 1 amine or outer side, 2 acyl side, 3 side chain; linkers in the order of their positions; H or OH if unused. Positions of bridges follow the written chain, without caps; N, C: chain ends. Non-standard residues stand in square brackets, D forms with d. Residues, ends and D or L forms follow the SMILES beside them. *: point of attachment. Phe(3,4-(OMe)2) = COc1ccc(C[C@H](N)C(=O)O)cc1OC; Abu(4-yl) = O=C([C@H](CC[*:3])N[*:1])[*:2]; 2Nal = N[C@@H](Cc1ccc2ccccc2c1)C(=O)O; AEF = NCCOc1ccc(C[C@H](N)C(=O)O)cc1; αMeF = C[C@](N)(Cc1ccccc1)C(=O)O; αMeE = C[C@](N)(CCC(=O)O)C(=O)O; Pen = CC(C)(S)[C@H](N)C(=O)O; αMeK = C[C@](N)(CCCCN)C(=O)O; Thp = NC1(C(=O)O)CCOCC1; Aib = CC(C)(N)C(=O)O; Propionyl = CCC(=O)*
# Target: IL-23R (Homo sapiens, UniProt Q5VWK5)
# Sequence (Q5VWK5 24-629): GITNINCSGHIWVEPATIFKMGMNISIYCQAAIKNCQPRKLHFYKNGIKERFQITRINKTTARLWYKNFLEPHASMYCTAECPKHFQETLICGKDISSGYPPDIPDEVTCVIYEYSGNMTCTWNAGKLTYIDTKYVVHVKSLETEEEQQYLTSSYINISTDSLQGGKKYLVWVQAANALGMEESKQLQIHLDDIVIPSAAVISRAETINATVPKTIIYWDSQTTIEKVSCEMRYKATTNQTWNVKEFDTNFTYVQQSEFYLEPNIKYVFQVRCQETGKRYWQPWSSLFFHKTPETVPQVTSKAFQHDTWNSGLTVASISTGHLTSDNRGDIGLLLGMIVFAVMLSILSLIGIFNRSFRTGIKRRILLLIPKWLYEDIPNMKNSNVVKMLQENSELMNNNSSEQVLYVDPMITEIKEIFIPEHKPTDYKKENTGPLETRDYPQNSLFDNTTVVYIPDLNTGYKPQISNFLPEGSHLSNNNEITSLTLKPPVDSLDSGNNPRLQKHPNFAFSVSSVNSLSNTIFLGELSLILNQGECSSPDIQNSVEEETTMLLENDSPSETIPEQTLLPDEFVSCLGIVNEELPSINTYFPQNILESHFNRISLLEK
# Test: cell-based
# Settings: PBMC pSTAT3 IC50 (nM), PBMCs from healthy donors, IL-23 5 ng/mL, 30 minutes, phosphorylated STAT3
# 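Note: cryopreserved PBMCs stimulated at 37 °C in 5% CO2, then lysed, with phosphorylated STAT3 quantified in lysates using a phospho-STAT panel kit.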
row,SMILES,IC50
1,"CC(=O)N[C@H](CCCNC(=N)N)C(=O)N[C@H]1CCSC[C@@H](C(=O)N[C@@H](Cc2ccc(OCCN)cc2)C(=O)N[C@@H](Cc2ccc3ccccc3c2)C(=O)NC2(C(=O)N[C@@](C)(CCC(=O)O)C(=O)N[C@@H](CC(N)=O)C(=O)N[C@@](C)(Cc3c[nH]c4ccccc34)C(N)=O)CCOCC2)NC(=O)[C@H](CCC(N)=O)NC(=O)[C@H](Cc2c[nH]c3ccccc23)NC(=O)[C@H]([C@@H](C)O)NC(=O)[C@H](CCC(N)=O)NC1=O [Compound 31, Ac-[(D)Arg]-[Abu]-Q-T-W-Q-[Cys]-Phe[4-(2-aminoethoxy)]-[2-Nal]-[THP]-[aMeGlu]-N-ameW-NH2]",16 nM
2,"CC(=O)N[C@H](CCCNC(=N)N)C(=O)N[C@H]1CCSC[C@@H](C(=O)N[C@@H](Cc2ccc(OCCN)cc2)C(=O)N[C@@H](Cc2ccc3ccccc3c2)C(=O)NC2(C(=O)N[C@@](C)(CCC(=O)O)C(=O)N[C@@H](CC(N)=O)C(=O)N[C@@H](Cc3ccc(C(N)=O)cc3)C(N)=O)CCOCC2)NC(=O)[C@H](CCC(N)=O)NC(=O)[C@H](Cc2c[nH]c3ccccc23)NC(=O)[C@H]([C@@H](C)O)NC(=O)[C@H](CCC(N)=O)NC1=O [Compound 34, Ac-[(D)Arg]-[Abu]-Q-T-W-Q-[Cys]-Phe[4-(2-aminoethoxy)]-[2-Nal]-[THP]-[aMeGlu]-N-[Phe(4-CONH2)]-NH2]",5.8 nM
3,"CC(=O)N[C@H](CCCNC(=N)N)C(=O)N[C@H]1CCSC[C@@H](C(=O)N[C@@H](Cc2ccc(OCCN)cc2)C(=O)N[C@@H](Cc2ccc3ccccc3c2)C(=O)NC2(C(=O)N[C@@](C)(CCC(=O)O)C(=O)N[C@@H](CC(N)=O)C(=O)N[C@@H](Cc3ccc4ccccc4c3)C(N)=O)CCOCC2)NC(=O)[C@H](CCC(N)=O)NC(=O)[C@H](Cc2c[nH]c3ccccc23)NC(=O)[C@H]([C@@H](C)O)NC(=O)[C@H](CCC(N)=O)NC1=O [Compound 35, Ac-[(D)Arg]-[Abu]-Q-T-W-Q-[Cys]-Phe[4-(2-aminoethoxy)]-[2-Nal]-[THP]-[aMeGlu]-N-[2-Nal]-NH2]",25 nM
4,"CC(=O)N[C@H](CCCNC(=N)N)C(=O)N[C@H]1CCSC[C@@H](C(=O)N[C@@H](Cc2ccc(OCCN)cc2)C(=O)N[C@@H](Cc2ccc3ccccc3c2)C(=O)NC2(C(=O)N[C@@](C)(CCC(=O)O)C(=O)N[C@@H](CC(N)=O)C(=O)N[C@@](C)(Cc3ccc(F)cc3)C(N)=O)CCOCC2)NC(=O)[C@H](CCC(N)=O)NC(=O)[C@H](Cc2c[nH]c3ccccc23)NC(=O)[C@H]([C@@H](C)O)NC(=O)[C@H](CCC(N)=O)NC1=O [Compound 36, Ac-[(D)Arg]-[Abu]-Q-T-W-Q-[Cys]-Phe[4-(2-aminoethoxy)]-[2-Nal]-[THP]-[aMeGlu]-N-[aMe(4-F)Phe]-NH2]",14 nM
5,"CC(=O)N[C@H](CCCNC(=N)N)C(=O)N[C@H]1CCSC[C@@H](C(=O)N[C@@H](Cc2ccc(OCCN)cc2)C(=O)N[C@@H](Cc2ccc3ccccc3c2)C(=O)NC2(C(=O)N[C@@](C)(CCC(=O)O)C(=O)N[C@@H](CC(N)=O)C(=O)NC3(C(N)=O)CCOCC3)CCOCC2)NC(=O)[C@H](CCC(N)=O)NC(=O)[C@H](Cc2c[nH]c3ccccc23)NC(=O)[C@H]([C@@H](C)O)NC(=O)[C@H](CCC(N)=O)NC1=O [Compound 37, Ac-[(D)Arg]-[Abu]-Q-T-W-Q-[Cys]-Phe[4-(2-aminoethoxy)]-[2-Nal]-[THP]-[aMeGlu]-N-[THP]-NH2]",11 nM
6,"COc1ccc(C[C@H](NC(=O)[C@@H]2CSCC[C@H](NC(=O)[C@@H](CCCNC(=N)N)NC(C)=O)C(=O)N[C@@H](CCC(N)=O)C(=O)N[C@@H]([C@@H](C)O)C(=O)N[C@@H](Cc3c[nH]c4ccccc34)C(=O)N[C@@H](CCC(N)=O)C(=O)N2)C(=O)N[C@@H](Cc2ccc3ccccc3c2)C(=O)NC2(C(=O)N[C@@](C)(CCC(=O)O)C(=O)N[C@@H](CC(N)=O)C(=O)N[C@@](C)(Cc3ccccc3)C(N)=O)CCOCC2)cc1OC [Compound 41, Ac-[(D)Arg]-[Abu]-Q-T-W-Q-[Cys]-[Phe(3,4-diOMe)]-[2-Nal]-[THP]-[aMeGlu]-N-[a-MePhe]-NH2] (Ac-[dR][Abu(4-yl)]QTWQC[Phe(3,4-(OMe)2)][2Nal][Thp][αMeE]N[αMeF]-NH2; thioether 2-7)",2500 nM
7,"CC(=O)N[C@H](CCCNC(=N)N)C(=O)N[C@H]1CCSC[C@@H](C(=O)N[C@@H](Cc2ccc(OCCN)cc2)C(=O)N[C@@H](Cc2ccc3ccccc3c2)C(=O)NC2(C(=O)N[C@@](C)(CCC(=O)O)C(=O)N[C@@H](CC(N)=O)C(=O)N[C@@H](Cc3ccccc3)C(=O)NC(C)(C)C(=O)N[C@@](C)(CCCCN)C(N)=O)CCOCC2)NC(=O)[C@H](CCC(N)=O)NC(=O)[C@H](Cc2c[nH]c3ccccc23)NC(=O)[C@H]([C@@H](C)O)NC(=O)[C@H](CCC(N)=O)NC1=O [Compound 43, Ac-[(D)Arg]-[Abu]-Q-T-W-Q-[Cys]-Phe[4-(2-aminoethoxy)]-[2-Nal]-[THP]-[aMeGlu]-N-F-[Aib]-[a-MeLys]-NH2] (Ac-[dR][Abu(4-yl)]QTWQC[AEF][2Nal][Thp][αMeE]NF[Aib][αMeK]-NH2; thioether 2-7)",8.2 nM
8,"CC(=O)N[C@H](CCCNC(=N)N)C(=O)N[C@H]1CCSC[C@@H](C(=O)N[C@@H](Cc2ccc(OCCN)cc2)C(=O)N[C@@H](Cc2ccc3ccccc3c2)C(=O)NC2(C(=O)N[C@@](C)(CCC(=O)O)C(=O)N[C@@H](CC(N)=O)C(=O)N[C@@](C)(Cc3ccc(O)cc3)C(N)=O)CCOCC2)NC(=O)[C@H](CCC(N)=O)NC(=O)[C@H](Cc2c[nH]c3ccccc23)NC(=O)[C@H]([C@@H](C)O)NC(=O)[C@H](CCC(N)=O)NC1=O [Compound 44, Ac-[(D)Arg]-[Abu]-Q-T-W-Q-[Cys]-Phe[4-(2-aminoethoxy)]-[2-Nal]-[THP]-[aMeGlu]-N-[aMeTyr]-NH2]",9.3 nM
9,"CC(=O)N[C@H](CCCNC(=N)N)C(=O)N[C@H]1CCSC[C@@H](C(=O)N[C@@H](Cc2ccc(OCCN)cc2)C(=O)N[C@@H](Cc2ccc3ccccc3c2)C(=O)NC2(C(=O)N[C@@](C)(CCC(=O)O)C(=O)N[C@@H](CC(N)=O)C(=O)N[C@@H](Cc3cc(F)cc(F)c3)C(N)=O)CCOCC2)NC(=O)[C@H](CCC(N)=O)NC(=O)[C@H](Cc2c[nH]c3ccccc23)NC(=O)[C@H]([C@@H](C)O)NC(=O)[C@H](CCC(N)=O)NC1=O [Compound 46, Ac-[(D)Arg]-[Abu]-Q-T-W-Q-[Cys]-Phe[4-(2-aminoethoxy)]-[2-Nal]-[THP]-[aMeGlu]-N-[Phe(3,5-diF)]-NH2]",48 nM
10,"C[C@@H](O)[C@@H]1NC(=O)[C@H](CCC(N)=O)NC(=O)[C@@H](NC(=O)[C@H](N)CCCNC(=N)N)CCSC[C@@H](C(=O)N[C@@H](Cc2ccc(OCCNC(=O)OC(C)(C)C)cc2)C(=O)N[C@@H](Cc2ccc3ccccc3c2)C(=O)NC2(C(=O)N[C@@H](CCC(=O)O)C(=O)N[C@@H](CC(N)=O)C(=O)NC3(C(N)=O)CCOCC3)CCOCC2)NC(=O)[C@H](CCC(N)=O)NC(=O)[C@H](Cc2c[nH]c3ccccc23)NC1=O [Compound 47, [(D)Arg]-[Abu]-Q-T-W-Q-[Cys]-Phe[4-(2-(Boc)aminoethoxy)]-[2-Nal]-[THP]-E-N-[THP]-NH2]",5.3 nM
11,"CC(=O)N[C@H](CCCNC(=N)N)C(=O)N[C@H]1CCSC[C@@H](C(=O)N[C@@H](Cc2ccc(OCCN)cc2)C(=O)N[C@@H](Cc2ccc3ccccc3c2)C(=O)NC2(C(=O)NC(C)(C)C(=O)N[C@@H](CC(N)=O)C(=O)N[C@@H](Cc3ccccc3)C(N)=O)CCOCC2)NC(=O)[C@H](CCC(N)=O)NC(=O)[C@H](Cc2c[nH]c3ccccc23)NC(=O)[C@H]([C@@H](C)O)NC(=O)[C@H](CCC(N)=O)NC1=O [Compound 49, Ac-[(D)Arg]-[Abu]-Q-T-W-Q-[Cys]-Phe[4-(2-aminoethoxy)]-[2-Nal]-[THP]-[Aib]-N-F-NH2] (Ac-[dR][Abu(4-yl)]QTWQC[AEF][2Nal][Thp][Aib]NF-NH2; thioether 2-7)",18 nM
12,"CC(=O)N[C@H](CCCNC(=N)N)C(=O)N[C@@H]1C(=O)N[C@@H](CCC(N)=O)C(=O)N[C@@H]([C@@H](C)O)C(=O)N[C@@H](Cc2c[nH]c3ccccc23)C(=O)N[C@@H](CCC(N)=O)C(=O)N[C@H](C(=O)N[C@@H](Cc2ccc(OCCN)cc2)C(=O)N[C@@H](Cc2ccc3ccccc3c2)C(=O)NC2(C(=O)N[C@@H](CCCCNC(=O)C3CC3)C(=O)N[C@@H](CC(N)=O)C(=O)NC3(C(N)=O)CCOCC3)CCOCC2)C(C)(C)SSC1(C)C [Compound 51, Ac-[(D)Arg]-[Pen]-Q-T-W-Q-[Pen]-Phe[4-(2-aminoethoxy)]-[2-Nal]-[THP]-[Lys(COcPr)]-N-[THP]-NH2]",27 nM
13,"CCCC(=O)NCCCC[C@H](NC(=O)C1(NC(=O)[C@H](Cc2ccc3ccccc3c2)NC(=O)[C@H](Cc2ccc(OCCN)cc2)NC(=O)[C@H]2NC(=O)[C@H](CCC(N)=O)NC(=O)[C@H](Cc3c[nH]c4ccccc34)NC(=O)[C@H]([C@@H](C)O)NC(=O)[C@H](CCC(N)=O)NC(=O)[C@@H](NC(=O)[C@@H](CCCNC(=N)N)NC(C)=O)C(C)(C)SSC2(C)C)CCOCC1)C(=O)N[C@@H](CC(N)=O)C(=O)NC1(C(N)=O)CCOCC1 [Compound 52, Ac-[(D)Arg]-[Pen]-Q-T-W-Q-[Pen]-Phe[4-(2-aminoethoxy)]-[2-Nal]-[THP]-[Lys(COPr)]-N-[THP]-NH2]",16 nM
14,"CC(=O)NCCCC[C@H](NC(=O)C1(NC(=O)[C@H](Cc2ccc3ccccc3c2)NC(=O)[C@H](Cc2ccc(OCCN)cc2)NC(=O)[C@H]2NC(=O)[C@H](CCC(N)=O)NC(=O)[C@H](Cc3c[nH]c4ccccc34)NC(=O)[C@H]([C@@H](C)O)NC(=O)[C@H](CCC(N)=O)NC(=O)[C@@H](NC(=O)[C@@H](CCCNC(=N)N)NC(C)=O)C(C)(C)SSC2(C)C)CCOCC1)C(=O)N[C@@H](CC(N)=O)C(=O)N[C@@H](Cc1ccccc1)C(N)=O [Compound 53, Ac-[(D)Arg]-[Pen]-Q-T-W-Q-[Pen]-Phe[4-(2-aminoethoxy)]-[2-Nal]-[THP]-[Lys(Ac)]-N-F-NH2] (Ac-[dR][Pen]QTWQ[Pen][AEF][2Nal][Thp]K(Ac)NF-NH2; disulfide 2-7)",29 nM
15,"CCC(=O)NCCCC[C@H](NC(=O)C1(NC(=O)[C@H](Cc2ccc3ccccc3c2)NC(=O)[C@H](Cc2ccc(OCCN)cc2)NC(=O)[C@H]2NC(=O)[C@H](CCC(N)=O)NC(=O)[C@H](Cc3c[nH]c4ccccc34)NC(=O)[C@H]([C@@H](C)O)NC(=O)[C@H](CCC(N)=O)NC(=O)[C@@H](NC(=O)[C@@H](CCCNC(=N)N)NC(C)=O)C(C)(C)SSC2(C)C)CCOCC1)C(=O)N[C@@H](CC(N)=O)C(=O)N[C@@H](Cc1ccccc1)C(N)=O [Compound 54, Ac-[(D)Arg]-[Pen]-Q-T-W-Q-[Pen]-Phe[4-(2-aminoethoxy)]-[2-Nal]-[THP]-[Lys(COEt)]-N-F-NH2] (Ac-[dR][Pen]QTWQ[Pen][AEF][2Nal][Thp]K(Propionyl)NF-NH2; disulfide 2-7)",47 nM
